Values of other authors as cited in patent US20210346549A1, “Non-Contact Sanitizing Products and Elements” (Segan Industries, Inc., priority 2020, published 2021).

Experiments:
[1] = system: sporicidal, bactericidal, virulcide, and fungicidal; conditions: low concentrations
[2] = vaccine content versus toxic quantity
vegetative bacteria = conditions: gas-aerosol concentration of 15 to 20 mg/m3, relative humidity of about 80%
bacterial spores = conditions: gas-aerosol concentration of 15 to 20 mg/m3, relative humidity of about 80%
coronavirus 229E = conditions: 1-minute contact time; free chlorine concentration of 1,000 ppm and 5,000 ppm

SMILES: CC(=O)OO [Peracetic acid]
- concentration at which sporicidal, bactericidal, virulcide, and fungicidal [1]: < 0.3%

SMILES: C=O [formaldehyde]
- quantity present in vaccines lower than that necessary to induce toxicity in experimental animals [2]: at least 600 fold

SMILES: O=CCCCC=O [glutaraldehyde]
- decimal reduction time (vegetative bacteria): less than 5 min
- decimal reduction time (bacterial spores): less than 45 min

SMILES: OCl [sodium hypochlorite]
- virucidal efficacy against coronavirus 229E (coronavirus 229E): effective
